Here are results for 15 molecules from patent US8785439B2, “2,5,7-substituted oxazolopyrimidine derivatives” (Sanofi, priority 2010, dated 2014).

This experiment deals with T1, human Edg-1 receptor (Homo sapiens, UniProt P21453).
T1 construct: FLAG (N); expressed in transfected cells; membrane preparation
Description: GTP-γ-S assay using human Edg-1 receptors (SPA, CHO Flp-In cell membrane preparation). In kind it is biochemical. The conditions noted are these: test compound at 10 μM; high control 10 μM S1P regarded as 100% activation; background-corrected; triplicate; read-out: % Activation (Edg-1 receptor activation in percent of the activation by 10 μM S1P). From the text: Determination of the Pharmacological Activity A) GTP-γ-S Assay Using Human Edg-1 Receptors
In order to determine the Edg-1 receptor activation by the compounds of the invention, a GTP-γ-S (guanosine 5′-[γ-thio]triphosphate) assay for G-protein coupled receptor binding based on the scintillation proximity assay principle was used, employing a cell membrane preparation from a CHO Flp-In cell line which constitutively overexpresses the human Edg-1 receptor.
The Flp-In™ expression system (Invitrogen, cat. no. K6010-01) allows the generation of stable mammalian cell lines into which the gene of interest has been integrated through homologous recombination at a specific genomic location called Flp Recombination Target (FRT) site by means of a Flp recombinase encoded by the pOG44 expression plasmid. The integration of the pcDNA5/FRT expression construct into the Flp-In host cell line genome results in the transcription of the gene of interest. The stably transfected cells become hygromycin-resistant.
One day prior to transfection, 200 000 Flp-In-CHO cells were seeded in Ham F-12 medium (Invitrogen, cat. no. 31765) supplemented with 10% fetal calf serum (FCS; Perbio Science, cat. no. SH30068.03) in a 6-well plate and incubated at 37° C./5% CO2 overnight. Using the FuGENE® 6 transfection reagent (Roche, cat. no. 11988387001), cells were cotransfected with the Flp recombinase expression plasmid pOG44 and a modified plasmid additionally containing the edg-1 gene (accession no. NM_001400) termed as pcDNA5-FRT-TO_nFLAG_DEST-EDG-1 with a 9:1 ratio. To obtain the modified pcDNA5-FRT-TO_nFLAG_DEST plasmid, the Invitrogen plasmid pcDNA5/FRT/TO (Invitrogen, cat. no. V6520-20) was adapted to the Gateway® (Invitrogen) cloning system by inserting a Gateway cassette containing attR recombination sites flanking a ccdB gene and a chloramphenicol-resistance gene (Gateway conversion system, Invitrogen, cat. no. 11828-029). In addition a FLAG tag epitope was added before the 5′ att recombination site to allow recombinant expression of N-terminally FLAG-tagged proteins.
For the transfection of one well, 1.08 μg of pOG44 and 0.12 μg of pcDNA5-FRT-TO_nFLAG_DEST-EDG-1 were mixed with 100 μl of serum-free Ham F-12 medium containing 6 μl of FuGENE® 6 transfection reagent. After 20 min of incubation, the transfection reagent/DNA complex was distributed dropwise on the cells. The cells were incubated for 24 h at 37° C. Then the cells from 3 wells each were transferred to a T75 flask (Greiner Cellstar®, cat. no. 658175) containing Ham F-12 medium supplemented with 10% of FCS but without antibiotic and were incubated another 24 h. 48 h after transfection, the medium was replaced by selection medium (Ham F-12 supplemented with 10% of FCS and 300 μg/ml of hygromycin B (Invitrogen, cat. no. 10687-010)). The medium was exchanged every 2 to 3 days until a resistant population of cells had grown. […] After 2 weeks of selection, the cells were transferred into T175 flasks (Greiner Cellstar®, cat. no. 660175) and cultivated for batch production. Cells were harvested from the culture flasks by short treatment (2 to 5 min) with Accutase (PAA, cat. no. L11-007), resuspended in selection medium (see above) and centrifuged at 200×g for 5 min. Cells were resuspended in a mixture of 90% of FCS and 10% of dimethylsulfoxide and stored frozen in liquid nitrogen.
A membrane preparation was obtained by standard methods from the afore-described CHO Flp-In cell line constitutively overexpressing the human Edg-1 receptor. Briefly, the cryopreserved cells were taken in culture and grown until confluency in T175 cell culture flasks (Becton Dickinson, cat. no. 35 5001). […]

T1 sequence (P21453 whole entry): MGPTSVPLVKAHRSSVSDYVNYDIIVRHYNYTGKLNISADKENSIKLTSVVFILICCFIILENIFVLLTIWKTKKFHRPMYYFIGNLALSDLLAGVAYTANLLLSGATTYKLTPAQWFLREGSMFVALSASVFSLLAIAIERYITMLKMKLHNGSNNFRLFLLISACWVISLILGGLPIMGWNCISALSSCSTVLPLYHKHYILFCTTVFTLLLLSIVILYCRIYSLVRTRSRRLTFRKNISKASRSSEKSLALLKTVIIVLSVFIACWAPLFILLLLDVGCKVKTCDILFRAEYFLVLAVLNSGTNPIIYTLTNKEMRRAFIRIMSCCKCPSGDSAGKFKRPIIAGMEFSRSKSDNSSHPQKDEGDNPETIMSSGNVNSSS

Turning to `CCCOc1nc(SC2CCS(=O)(=O)C2)nc2oc(-c3cccc(F)c3)nc12` (stereo not drawn) [Example 14, 5-(1,1-dioxo-tetrahydro-1lambda6-thiophen-3-ylsulfanyl)-2-(3-fluoro-phenyl)-7-propoxy-oxazolo[5,4-d]pyrimidine], the activation at 10 µM is 72%.

As for `CCCOc1nc(Oc2ccc(F)c(C(F)(F)F)c2)nc2oc(-c3cccc(C)c3)nc12` [Example 129, 5-(4-fluoro-3-trifluoromethyl-phenoxy)-7-propoxy-2-(3-methyl-phenyl)-oxazolo[5,4-d]pyrimidine], the activation at 10 µM turned out to be 85%. As to `CCCOc1nc(Oc2cccc(SC(F)(F)F)c2)nc2oc(-c3cccc(F)c3)nc12` [Example 69, 2-(3-fluoro-phenyl)-7-propoxy-5-(3-trifluoromethylsulfanyl-phenoxy)-oxazolo[5,4-d]pyrimidine], the activation at 10 µM was found to be 41%. The result for `CCCOc1nc(Oc2ccc(C)nn2)nc2oc(-c3cccc(F)c3)nc12` [Example 18, 2-(3-fluoro-phenyl)-5-(6-methyl-pyridazin-3-yloxy)-7-propoxy-oxazolo[5,4-d]pyrimidine] reads 42%; that for `CCCOc1nc(Oc2ccc(Cl)c(C)c2)nc2oc(-c3cccc(C)c3)nc12` [Example 140, 5-(4-chloro-3-methyl-phenoxy)-7-propoxy-2-(3-methyl-phenyl)-oxazolo[5,4-d]pyrimidine], 60%; that for `CCCOc1nc(Oc2ccccc2)nc2oc(-c3cc(C)ccc3F)nc12` [Example 33, 2-(2-fluoro-5-methyl-phenyl)-5-phenoxy-7-propoxy-oxazolo[5,4-d]pyrimidine], 124%. As for `CCCOc1nc(Oc2cc(C)nn2C)nc2oc(-c3cccc(F)c3)nc12` [Example 24, 5-(2,5-dimethyl-2H-pyrazol-3-yloxy)-2-(3-fluoro-phenyl)-7-propoxy-oxazolo[5,4-d]pyrimidine], the figure is 99%; as for `CCCOc1nc(Oc2ccccc2C(F)(F)F)nc2oc(-c3cccc(C)c3)nc12` [Example 141, 7-propoxy-2-(3-methyl-phenyl)-5-(2-trifluoromethyl-phenoxy)-oxazolo[5,4-d]pyrimidine], 103%; as for `CCCOc1nc(Oc2ccccc2)nc2oc(-c3cccc(F)c3)nc12` [Example 61, 2-(3-fluoro-phenyl)-5-phenoxy-7-propoxy-oxazolo[5,4-d]pyrimidine], 74%. The result for `CCCOc1nc(Oc2ccc(C#N)cc2OC)nc2oc(-c3cccc(C)c3)nc12` [Example 92, 3-methoxy-4-(7-propoxy-2-(3-methyl-phenyl)-oxazolo[5,4-d]pyrimidin-5-yloxy)-benzonitrile] reads 51%; that for `CCCOc1nc(Oc2ccc(C)cc2Cl)nc2oc(-c3cccc(C)c3)nc12` [Example 90, 5-(2-chloro-4-methyl-phenoxy)-7-propoxy-2-(3-methyl-phenyl)-oxazolo[5,4-d]pyrimidine], 67%; that for `CCCOc1nc(Oc2cccnc2)nc2oc(-c3ccc(Cl)c(Cl)c3)nc12` [Example 44, 2-(3,4-dichloro-phenyl)-7-propoxy-5-(pyridin-3-yloxy)-oxazolo[5,4-d]pyrimidine], 94%. Take `CCCOc1nc(NC2CCC(C)CC2)nc2oc(-c3cc(F)ccc3Cl)nc12` (stereo not drawn) [Example 113, [2-(2-chloro-5-fluoro-phenyl)-7-propoxy-oxazolo[5,4-d]pyrimidin-5-yl]-(4-methyl-cyclohexyl)-amine]: the activation at 10 µM is 52%.

As to `CCCOc1nc(Oc2cc(C)cc(C)c2C)nc2oc(-c3cccc(C)c3)nc12` [Example 123, 7-propoxy-2-(3-methyl-phenyl)-5-(2,3,5-trimethyl-phenoxy)-oxazolo[5,4-d]pyrimidine], the activation at 10 µM turned out to be 65%. `C=CCCCOc1nc(OCCC)c2nc(-c3cccc(C)c3)oc2n1` [Example 9, 5-Pent-4-enyloxy-7-propoxy-2-(3-methylphenyl)-oxazolo[5,4-d]pyrimidine]: the activation at 10 µM worked out at 87%.
